Measurements from ChEMBL document CHEMBL3792292, “Development of a potent and selective FLT3 kinase inhibitor by systematic expansion of a non-selective fragment-screening hit” (Bioorg Med Chem Lett, 2016).

Experiments:
[1] = target: Serine/threonine-protein kinase pim-1 (Homo sapiens) (UniProt P11309); experiment: Inhibition of full length human N-terminal His-tagged PIM1 (1 to 313 residues) expressed in baculovirus expression system using fluorescence labelled S6K2 peptide substrate at 50 times IC50 by electrophoretic mobility shift assay relative to control
[2] = target: Mitogen-activated protein kinase 9 (Homo sapiens) (UniProt P45984); experiment: Inhibition of human N-terminal GST-tagged JNK2 catalytic domain (1 to 364 residues) expressed in Escherichia coli using fluorescence labelled modified Erktide as substrate at 50 times IC50 by electrophoretic mobility shift assay relative to control
[3] = target: T1, Tyrosine-protein kinase receptor TYRO3 (Homo sapiens) (UniProt Q06418); experiment: Inhibition of human N-terminal GST-tagged TYRO3 cytoplasmic domain (453 to 890 residues) expressed in baculovirus expression system using fluorescence labelled CSKtide as substrate at 50 times IC50 by electrophoretic mobility shift assay relative to control
T1 sequence (whole entry): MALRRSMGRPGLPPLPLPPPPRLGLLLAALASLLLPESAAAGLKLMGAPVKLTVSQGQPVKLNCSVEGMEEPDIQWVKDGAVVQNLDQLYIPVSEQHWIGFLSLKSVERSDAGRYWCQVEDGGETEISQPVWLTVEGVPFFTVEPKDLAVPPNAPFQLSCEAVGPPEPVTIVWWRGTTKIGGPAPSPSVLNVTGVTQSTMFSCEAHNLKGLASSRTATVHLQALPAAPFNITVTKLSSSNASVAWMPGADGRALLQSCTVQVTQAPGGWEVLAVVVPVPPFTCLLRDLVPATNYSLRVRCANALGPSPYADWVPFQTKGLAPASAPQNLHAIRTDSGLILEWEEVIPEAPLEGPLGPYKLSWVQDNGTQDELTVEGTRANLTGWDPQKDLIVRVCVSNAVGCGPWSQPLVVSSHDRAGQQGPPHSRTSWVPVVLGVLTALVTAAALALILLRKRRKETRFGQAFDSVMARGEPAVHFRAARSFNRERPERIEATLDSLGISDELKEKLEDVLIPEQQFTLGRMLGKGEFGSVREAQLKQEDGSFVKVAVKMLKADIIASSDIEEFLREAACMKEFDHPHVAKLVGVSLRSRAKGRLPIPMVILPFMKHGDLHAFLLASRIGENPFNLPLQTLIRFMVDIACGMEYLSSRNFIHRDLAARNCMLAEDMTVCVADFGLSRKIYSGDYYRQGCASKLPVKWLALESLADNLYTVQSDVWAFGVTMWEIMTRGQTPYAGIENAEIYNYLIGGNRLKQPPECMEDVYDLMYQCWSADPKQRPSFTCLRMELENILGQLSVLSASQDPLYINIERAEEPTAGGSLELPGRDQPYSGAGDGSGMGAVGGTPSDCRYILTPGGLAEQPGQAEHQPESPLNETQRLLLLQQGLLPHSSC

[4] = target: High affinity nerve growth factor receptor (Homo sapiens, UniProt P04629); experiment: Inhibition of human N-terminal GST-tagged TRKA cytoplasmic domain (436 to 790 residues) expressed in baculovirus expression system using fluorescence labelled CSKtide as substrate at 50 times IC50 by electrophoretic mobility shift assay relative to control
[5] = target: Serine/threonine-protein kinase PAK 2 (Homo sapiens) (UniProt Q13177); experiment: Inhibition of full length human N-terminal GST-tagged PAK2 (1 to 524 residues) expressed in baculovirus expression system using fluorescence labelled DAPK1tide as substrate at 50 times IC50 by electrophoretic mobility shift assay relative to control
[6] = target: Mitogen-activated protein kinase kinase kinase kinase 4 (Homo sapiens, UniProt O95819); experiment: Inhibition of human N-terminal GST-tagged HGK catalytic domain (1 to 328 residues) expressed in baculovirus expression system using fluorescence labelled moesin-derived peptide substrate at 50 times IC50 by electrophoretic mobility shift assay relative to control
[7] = target: Tyrosine-protein kinase ABL1 (Homo sapiens) (UniProt P00519); experiment: Inhibition of full length human N-terminal His-tagged ABL (2 to 1130 residues) expressed in baculovirus expression system using fluorescence labelled ABLtide as substrate at 50 times IC50 by electrophoretic mobility shift assay relative to control
[8] = target: Death-associated protein kinase 1 (Homo sapiens) (UniProt P53355); experiment: Inhibition of human N-terminal GST-tagged DAPK1 catalytic domain (1 to 289 residues) expressed in baculovirus expression system using fluorescence labelled DAPK1tide as substrate at 50 times IC50 by electrophoretic mobility shift assay relative to control
[9] = target: Tyrosine-protein kinase Lck (Homo sapiens) (UniProt P06239); experiment: Inhibition of full length human N-terminal GST-tagged LCK (1 to 500 residues) expressed in baculovirus expression system using fluorescence labelled srctide as substrate at 50 times IC50 by electrophoretic mobility shift assay relative to control
[10] = target: Mitogen-activated protein kinase 1 (Homo sapiens) (UniProt P28482); experiment: Inhibition of full length human N-terminal GST-tagged ERK2 (1 to 360 residues) expressed in Escherichia coli using fluorescence labelled modified Erktide as substrate at 50 times IC50 by electrophoretic mobility shift assay relative to control
[11] = target: T2, Serine/threonine-protein kinase 4 (Homo sapiens) (UniProt Q13043); experiment: Inhibition of full length human N-terminal GST-tagged MST1 (1 to 487 residues) expressed in baculovirus expression system using fluorescence labelled IRS1 as substrate at 50 times IC50 by electrophoretic mobility shift assay relative to control
T2 sequence (whole entry): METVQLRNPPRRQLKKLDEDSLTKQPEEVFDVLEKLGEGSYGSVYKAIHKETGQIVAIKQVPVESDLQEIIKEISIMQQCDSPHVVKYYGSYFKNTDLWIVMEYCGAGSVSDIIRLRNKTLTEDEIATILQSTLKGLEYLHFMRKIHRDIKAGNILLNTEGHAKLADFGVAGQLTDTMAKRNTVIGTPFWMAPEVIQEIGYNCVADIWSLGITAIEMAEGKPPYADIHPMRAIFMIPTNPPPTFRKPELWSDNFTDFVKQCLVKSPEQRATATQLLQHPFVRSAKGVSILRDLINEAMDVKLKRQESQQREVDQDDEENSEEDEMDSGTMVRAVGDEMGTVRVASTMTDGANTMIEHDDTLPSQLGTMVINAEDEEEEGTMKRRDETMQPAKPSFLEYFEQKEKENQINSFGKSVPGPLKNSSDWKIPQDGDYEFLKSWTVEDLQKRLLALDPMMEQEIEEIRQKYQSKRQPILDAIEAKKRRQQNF

[12] = target: Protein-tyrosine kinase 2-beta (Homo sapiens) (UniProt Q14289); experiment: Inhibition of full length human N-terminal GST-tagged PYK2 (1 to 967 residues) expressed in baculovirus expression system using fluorescence labelled Blk/Lyntide as substrate at 50 times IC50 by electrophoretic mobility shift assay relative to control

| SMILES | inhibition [1] [%] | inhibition [2] [%] | inhibition [3] [%] | inhibition [4] [%] | inhibition [5] [%] | inhibition [6] [%] | inhibition [7] [%] | inhibition [8] [%] | inhibition [9] [%] | inhibition [10] [%] | inhibition [11] [%] | inhibition [12] [%] |
| --- | --- | --- | --- | --- | --- | --- | --- | --- | --- | --- | --- | --- |
| O=C(Nc1ccc(CN2CCN(c3ccccc3)CC2)cc1)c1n[nH]c2ccccc12 | 6 | -1.1 | 3.6 | 80.5 | 0.6 | 62.8 | 3.4 | 8.3 | 1.8 | -2.1 | 32.6 | 14.2 |
| O=C(Nc1ccccc1)c1n[nH]c2ccccc12 | 3.1 | 24.5 | 10.6 | 95 | 0.8 | 92.5 | 5.3 | 32.9 | 5.6 | 7 | 31.9 | 49.5 |
| O=C(Nc1ccc(C(=O)N2CCN(c3ccccc3)CC2)cc1)c1n[nH]c2ccccc12 | 3 | 9.3 | 9.3 | 90.1 | -1.6 | 90.6 | 3.9 | 13 | 1.8 | -0.8 | 16.8 | 34.9 |
